Reference: patent US12291518B2, “Thyroid hormone receptor agonists and use thereof” (Eccogene Inc., priority 2020, dated 2025)
Read-outs that look alike come from different tables or passages of the source.

What was measured:
THR alpha-LBD = target: T1, THR alpha-LBD (Homo sapiens, UniProt P10827); experiment: THR-α Coactivator Peptide Recruitment Assay (LanthaScreen TR-FRET); assay type: biochemical
T1 construct: except that THR alpha-LBD of a final concentration 0.25 nM was used; purchased Invitrogen PV4687
T1 sequence (P10827 163-410 isoform P10827-2 limits assumed, other chains not shown): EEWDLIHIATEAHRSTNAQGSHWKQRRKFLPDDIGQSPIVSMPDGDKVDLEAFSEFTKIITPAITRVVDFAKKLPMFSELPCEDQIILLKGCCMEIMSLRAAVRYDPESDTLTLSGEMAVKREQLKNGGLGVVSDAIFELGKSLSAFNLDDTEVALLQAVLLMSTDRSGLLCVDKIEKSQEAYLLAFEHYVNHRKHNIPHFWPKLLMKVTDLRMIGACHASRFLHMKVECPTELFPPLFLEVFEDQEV
How it was run: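 TR-FRET coactivator recruitment with THR alpha-LBD at 0.25 nM final, Fluorescein-SRC2-2 peptide 0.1 nM and Tb-labeled anti-GST antibody 2 nM; 2 h incubation at room temperature. 520/495 nm emission ratio fitted to a four-parameter sigmoidal curve to give EC50.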

THR beta-LBD = target: T2, THR beta-LBD (Homo sapiens, UniProt P10828); experiment: THR-β Coactivator Peptide Recruitment Assay (LanthaScreen TR-FRET); assay type: biochemical
T2 construct: THR beta-LBD (the final concentration is 0.5 nM) was added to the 384-well assay plate; purchased Invitrogen PV4686
T2 sequence (P10828 217-461 limits assumed): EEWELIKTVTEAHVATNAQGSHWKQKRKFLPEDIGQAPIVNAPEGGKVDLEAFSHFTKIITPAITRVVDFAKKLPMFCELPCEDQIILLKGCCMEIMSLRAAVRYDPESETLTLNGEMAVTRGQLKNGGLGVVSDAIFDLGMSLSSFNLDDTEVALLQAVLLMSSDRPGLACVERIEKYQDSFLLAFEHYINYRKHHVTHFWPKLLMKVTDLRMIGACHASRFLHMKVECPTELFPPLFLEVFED
How it was run: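 Agonist-driven coactivator recruitment read as a 520/495 nm TR-FRET emission ratio after 2 h at room temperature. Final concentrations: THR beta-LBD 0.5 nM, fluorescein-SRC2-2 peptide 0.1 nM, terbium anti-GST antibody 2 nM. EC50 from four-parameter dose-response fitting.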

[1] = TR-FRET coactivator recruitment, THR alpha-LBD 0.25 nM
[2] = TR-FRET coactivator recruitment, THR alpha-LBD 0.25 nM, read-out: THRα EC50
[3] = TR-FRET coactivator recruitment, THR beta-LBD 0.5 nM
[4] = TR-FRET coactivator recruitment, THR beta-LBD 0.5 nM, read-out: THRβ EC50

THRα Emax (THR alpha-LBD; [1]) | EC50 (THR alpha-LBD; [2]) [nM] | THRβ Emax (THR beta-LBD; [3]) | EC50 (THR beta-LBD; [4]) [nM] | SMILES | EC50 (THR alpha-LBD) [nM] | EC50 (THR beta-LBD) [nM]
A (85~110) | 2 to 200 | A (90~110) | 2 to 20 | O=c1[nH]c(=O)n(-c2cc(Cl)c(Oc3ccc(O)c(S(=O)(=O)NC45CC(O)(C4)C5)c3)c(Cl)c2)nc1C(F)F [Compound 81, 5-(2,6-dichloro-4-(6-(difluoromethyl)-3,5-dioxo-4,5-dihydro-1,2,4-triazin-2(3H)-yl)phenoxy)-2-hydroxy-N-(3-hydroxybicyclo[1.1.1]pentan-1-yl)benzenesulfonamide] |  | 
A (85~110) | 2 to 200 | A (90~110) | < 2 | O=C(NCC1(NS(=O)(=O)c2cc(Oc3c(Cl)cc(-n4nc(C(F)F)c(=O)[nH]c4=O)cc3Cl)ccc2O)CC1)C1CC1 [Compound 84, N-[[1-[[5-[2,6-dichloro-4-[6-(difluoromethyl)-3,5-dioxo-1,2,4-triazin-2-yl]phenoxy]-2-hydroxy-phenyl]sulfonylamino]cyclopropyl]methyl]cyclopropane carboxamide] |  | 
B (40~85) | 200 to 1000 | B (75~90) | < 2 | O=C(NCC(F)F)C1(NS(=O)(=O)c2cc(Oc3c(Cl)cc(-n4nc(C(F)F)c(=O)[nH]c4=O)cc3Cl)ccc2O)CC1 [Compound 87, 1-[[5-[2,6-dichloro-4-[6-(difluoromethyl)-3,5-dioxo-1,2,4-triazin-2-yl]phenoxy]-2-hydroxy-phenyl]sulfonylamino]-N-(2,2-difluoroethyl) cyclopropanecarboxamide] |  | 
A (85~110) | 2 to 200 | B (75~90) | < 2 | O=C(NC1CCC1)C1(NS(=O)(=O)c2cc(Oc3c(Cl)cc(-n4nc(C(F)F)c(=O)[nH]c4=O)cc3Cl)ccc2O)CC1 [Compound 89, N-cyclobutyl-1-((5-(2,6-dichloro-4-(6-(difluoromethyl)-3,5-dioxo-4,5-dihydro-1,2,4-triazin-2(3H)-yl)phenoxy)-2-hydroxyphenyl)sulfonamido)cyclopropane-1-carboxamide] |  | 
A (85~110) | 2 to 200 | B (75~90) | < 2 | O=C(NC1CCCC1)C1(NS(=O)(=O)c2cc(Oc3c(Cl)cc(-n4nc(C(F)F)c(=O)[nH]c4=O)cc3Cl)ccc2O)CC1 [Compound 90, N-cyclopentyl-1-((5-(2,6-dichloro-4-(6-(difluoromethyl)-3,5-dioxo-4,5-dihydro-1,2,4-triazin-2(3H)-yl)phenoxy)-2-hydroxyphenyl)sulfonamido)cyclopropane-1-carboxamide] |  | 
B (40~85) | 200 to 1000 | A (90~110) | 2 to 20 | O=C(N1CCCC1)C1(NS(=O)(=O)c2cc(Oc3c(Cl)cc(-n4nc(C(F)F)c(=O)[nH]c4=O)cc3Cl)ccc2O)CC1 [Compound 91, 5-(2,6-dichloro-4-(6-(difluoromethyl)-3,5-dioxo-4,5-dihydro-1,2,4-triazin-2(3H)-yl)phenoxy)-2-hydroxy-N-(1-(pyrrolidine-1-carbonyl)cyclopropyl)benzenesulfonamide] |  | 
B (40~85) | 200 to 1000 | B (75~90) | 2 to 20 | O=C(NC1CC1)C1(NS(=O)(=O)c2cc(Oc3c(Cl)cc(-n4nc(C(F)F)c(=O)[nH]c4=O)cc3Cl)ccc2O)CCC1 [Compound 92, N-cyclopropyl-1-((5-(2,6-dichloro-4-(6-(difluoromethyl)-3,5-dioxo-4,5-dihydro-1,2,4-triazin-2(3H)-yl)phenoxy)-2-hydroxyphenyl)sulfonamido)cyclobutane-1-carboxamide] |  | 

The next lines start with the compound.

SMILES | THRα Emax (THR alpha-LBD; [1]) | EC50 (THR alpha-LBD; [2]) [nM] | THRβ Emax (THR beta-LBD; [3]) | EC50 (THR beta-LBD; [4]) [nM] | EC50 (THR alpha-LBD) [nM] | EC50 (THR beta-LBD) [nM]
O=c1[nH]c(=O)n(-c2cc(Cl)c(Oc3ccc(O)c(S(=O)(=O)NC4CC5(CC(O)C5)C4)c3)c(Cl)c2)nc1C(F)F (stereo not drawn) [Compound 74, 5-[2,6-dichloro-4-[6-(difluoromethyl)-3,5-dioxo-1,2,4-triazin-2-yl]phenoxy]-2-hydroxy-N-(2-hydroxyspiro [3.3]heptan-6-yl) benzene sulfonamide] | B (40~85) | 200 to 1000 | B (75~90) | 20 to 100 |  | 
O=c1[nH]c(=O)n(-c2cc(Cl)c(Oc3ccc(O)c(S(=O)(=O)N4CC[C@@H](O)C4)c3)c(Cl)c2)nc1C(F)F [Compound 76, (R)-2-(3,5-dichloro-4-(4-hydroxy-3-((3-hydroxypyrrolidin-1-yl)sulfonyl)phenoxy)phenyl)-6-(difluoromethyl)-1,2,4-triazine-3,5(2H,4H)-dione] | A (85~110) | 2 to 200 | B (75~90) | < 2 |  | 
O=c1[nH]c(=O)n(-c2cc(Cl)c(Oc3ccc(O)c(S(=O)(=O)N4CC[C@H](O)C4)c3)c(Cl)c2)nc1C(F)F [Compound 77, (S)-2-(3,5-dichloro-4-(4-hydroxy-3-((3-hydroxypyrrolidin-1-yl)sulfonyl)phenoxy)phenyl)-6-(difluoromethyl)-1,2,4-triazine-3,5(2H,4H)-dione] | A (85~110) | 2 to 200 | B (75~90) | < 2 |  | 
O=C(N[C@H]1C[C@H](NS(=O)(=O)c2cc(Oc3c(Cl)cc(-n4nc(C(F)F)c(=O)[nH]c4=O)cc3Cl)ccc2O)C1)C1CC1 [Compound 78, N-[3-[[5-[2,6-dichloro-4-[6-(difluoromethyl)-3,5-dioxo-1,2,4-triazin-2-yl]-phenoxy]-2-hydroxy-phenyl]-sulfonylamino]-cyclobutyl]-cyclopropanecarboxamide] | B (40~85) |  | C (<75) |  | 200 to 1000 | 20 to 100
N#CC12CC(NS(=O)(=O)c3cc(Oc4c(Cl)cc(-n5nc(C(F)F)c(=O)[nH]c5=O)cc4Cl)ccc3O)(C1)C2 [Compound 79, N-(3-cyanobicyclo[1.1.1]pentan-1-yl)-5-(2,6-dichloro-4-(6-(difluoromethyl)-3,5-dioxo-4,5-dihydro-1,2,4-triazin-2 (3H)-yl)phenoxy)-2-hydroxybenzenesulfonamide] | A (85~110) | 2 to 200 | B (75~90) | < 2 |  | 
O=c1[nH]c(=O)n(-c2cc(Cl)c(Oc3ccc(O)c(S(=O)(=O)NCC4(O)CC4)c3)c(Cl)c2)nc1C(F)F [Compound 80, 5-(2,6-dichloro-4-(6-(difluoromethyl)-3,5-dioxo-4,5-dihydro-1,2,4-triazin-2(3H)-yl)phenoxy)-2-hydroxy-N-((1-hydroxycyclopropyl)methyl)benzenesulfonamide] | A (85~110) | 2 to 200 | A (90~110) | 2 to 20 |  | 
CS(=O)(=O)[C@H]1C[C@H](NS(=O)(=O)c2cc(Oc3c(Cl)cc(-n4nc(C(F)F)c(=O)[nH]c4=O)cc3Cl)ccc2O)C1 [Compound 82, 5-(2,6-dichloro-4-(6-(difluoromethyl)-3,5-dioxo-4,5-dihydro-1,2,4-triazin-2(3H)-yl)phenoxy)-2-hydroxy-N-((1r,3r)-3-(methylsulfonyl)cyclobutyl)benzenesulfonamide] | B (40~85) | > 1000 | B (75~90) | 20 to 100 |  | 
O=c1[nH]c(=O)n(-c2cc(Cl)c(Oc3ccc(O)c(S(=O)(=O)NC4CS(=O)(=O)C4)c3)c(Cl)c2)nc1C(F)F [Compound 83, 5-(2,6-dichloro-4-(6-(difluoromethyl)-3,5-dioxo-4,5-dihydro-1,2,4-triazin-2(3H)-yl)phenoxy)-N-(1,1-dioxidothietan-3-yl)-2-hydroxybenzenesulfonamide] | A (85~110) | 2 to 200 | A (90~110) | < 2 |  | 
O=C(NC12CC(NS(=O)(=O)c3cc(Oc4c(Cl)cc(-n5nc(C(F)F)c(=O)[nH]c5=O)cc4Cl)ccc3O)(C1)C2)C1CC1 [Compound 85, N-(3-((5-(2,6-dichloro-4-(6-(difluoromethyl)-3,5-dioxo-4,5-dihydro-1,2,4-triazin-2(3H)-yl)phenoxy)-2-hydroxyphenyl)sulfonamido)bicyclo[1.1.1]pentan-1-yl)cyclopropanecarboxamide] | C (<40) | > 1000 | C (<75) | > 100 |  | 
O=C(N[C@H]1C[C@@H](NS(=O)(=O)c2cc(Oc3c(Cl)cc(-n4nc(C(F)F)c(=O)[nH]c4=O)cc3Cl)ccc2O)C1)C1CC1 [Compound 86, N-((1s,3s)-3-((5-(2,6-dichloro-4-(6-(difluoromethyl)-3,5-dioxo-4,5-dihydro-1,2,4-triazin-2(3H)-yl)phenoxy)-2-hydroxyphenyl)sulfonamido)cyclobutyl) cyclopropanecarboxamide] | C (<40) | 200 to 1000 | C (<75) | 2 to 20 |  | 
O=C(CNS(=O)(=O)c1cc(Oc2c(Cl)cc(-n3nc(C(F)F)c(=O)[nH]c3=O)cc2Cl)ccc1O)NCC(F)F [Compound 88, 2-((5-(2,6-dichloro-4-(6-(difluoromethyl)-3,5-dioxo-4,5-dihydro-1,2,4-triazin-2(3H)-yl)phenoxy)-2-hydroxyphenyl)sulfonamido)-N-(2,2-difluoroethyl)acetamide] | B (40~85) | 200 to 1000 | B (75~90) | 20 to 100 |  | 
